Test results published in patent US20100035857A1, “ANTI-HYPERCHOLESTEROLEMIC COMPOUNDS” (priority 2006, published 2010).

Tested on: cholesterol absorption
Experiment: Cholesterol Absorption Assay in Rats
Format: in vivo
Settings: CD male rats, oral, at the highest dose tested; [3H]-cholesterol counts in liver and plasma
Procedure: Compounds can be tested for cholesterol absorption activity in assays using, e.g., rats or mice, and are preferably tested in the rat assay described herein. Representative compounds of this invention were determined to inhibit cholesterol absorption employing the Cholesterol Absorption Assay in Rats, below. This assay involves comparing a test compound to ezetimibe with respect to their ability to inhibit cholesterol absorption in rats.
Cholesterol Absorption Assay in Rats: CD male rats (n=5/group), aged 5 weeks, were dosed orally with 0.5 ml 0.25% methyl cellulose solution with or without test compound or ezetimibe (0.0003 to 1 mg/kg). 0.5 to 16 hrs later all of the rats were dosed orally with 0.5 ml […]® containing 5 μCi [^3H]-cholesterol per rat. Five hours later, the animals were euthanized, and liver and blood were collected. Cholesterol counts in liver and plasma were determined, and percent inhibition of cholesterol absorption was calculated.

O=C1[C@H](CC[C@H](O)c2ccc(F)cc2)[C@@H](c2ccc(O)cc2)N1c1ccc(F)cc1 [ezetimibe, Ezetimibe]
inhibition of cholesterol absorption: > 75%
